Holding throughout (type): cell-based, Human
Test [1] concerns PGC-1α. The test can be described thus: Immunoblot of nuclear PGC-1α in A549 cells. Conditions: 0.1 μM, 4 h. A general note: Immunoblotting shows a protein as a band on a membrane.
Test [2] concerns PGC-1α. Put plainly: Immunoblot of nuclear PGC-1α in BEAS-2B cells. Particulars: 0.1 μM, 4 h.
In test [3] the test system is mitofusin 1 (MFN1) and mitofusin 2 (MFN2). The test can be described thus: qRT-PCR of mitofusin mRNA in BEAS-2B cells. Particulars: 0.1 μM, 4 h. As for the experimental part:
Supplementary Figure 4 Effects of TPP-derivatives on mitofusin 1 and mitofusin 2 expression.
A549 and BEAS-2B cells were incubated 4 h in fresh medium (ctrl) or with 0.1 µM of 1 and 2.
Expression of mitofusin 1 (MFN1) and mitofusin 2 (MFN2) mRNA was evaluated by qRT-PCR in
triplicates. Data are means ± SD (n=3).
(§1) (1 picture or pasted object on this page, not shown here)
(In general: Real-time PCR tracks product formation cycle by cycle.)

Test [4] has as its system mitochondrial ATP. The test can be described thus: Mitochondrial ATP in A549 cells. Particulars: 0.1 μM, 4 h. As for the experimental part:
The amount of ATP was measured on 20 μg of mitochondrial extracts with the ATP Bioluminescent Assay Kit (FL-AA, Sigma Chemical Co.). Data were converted into nmoles/mg mitochondrial proteins, using a calibration curve previously set.
(§2) [t] Continuedof three experiments with similar results. (D) Confocal analysis of mitochondrial staining with MitoTracker® Green FM. Magnification: 60 × objective (0.52 numerical aperture); 10 × ocular lens. Bar: 10 μM. The micrographs are representative of three experiments with similar results. (E,F) The electron transport was measured spectrophotometrically in duplicates. ATP levels in mitochondrial extracts was measured by a chemiluminescence-based assay, in duplicates. Data are means ± SD (n = 3). For both panels: ^∗p < 0.001 vs. A549 ctrl cells; °p < 0.001 for BEAS-2B cells vs. the corresponding condition in A549 cells. (G,H) ROS amount in mitochondrial extracts and mitochondrial damage were measured fluorimetrically, in duplicates. Data are means ± SD (n = 3). For both panels: ^∗p < 0.001 vs. A549 ctrl cells; °p < 0.001 for BEAS-2B cells vs. the corresponding condition in A549 cells. There were no statistically significant differences between untreated (ctrl) and compound 1/compound 2-treated BEAS-2B cells for all the parameters analyzed in this figure.

Test [5] concerns mitochondrial ROS. Put plainly: Mitochondrial ROS (MitoSOX Red) in A549 cells. Particulars: 0.1 μM, 4 h. As for the experimental part: The amount of ROS in mitochondrial extracts was measured fluorimetrically by incubating cell suspension at 37°C for 10 min with 10 μM of MitoSOX Red probe (Invitrogen Life Technologies), as per manufacturer’s instructions. Results were expressed as nmoles/mg mitochondrial proteins, using a calibration curve previously set with serial dilution of H2O2.
as §2, with “= 3). […] There were” for “= 3). For both panels: ^∗p < 0.001 vs. A549 ctrl cells; °p < 0.001 for BEAS-2B cells vs. the corresponding condition in A549 cells. There were”

Test [6] has as its system caspase 3. Put plainly: Caspase 3 activity in A549 cell lysates. Particulars: 0.1 μM, 24 h. As for the experimental part:
The activity of caspase 9 and 3 was measured by incubating 20 μg cell lysates with the respective fluorogenic substrates Ac-LEHD-AMC (LEHD-AMC) or DEVD-AMC (DEVD-AMC), as reported ([Pinzón-Daza et al., 2012]). Results were expressed as nmoles AMC/mg protein.
(§3) FIGURE 7 Effects of phenol TPP-derivatives on mitochondria-dependent apoptosis. A549 and BEAS-2B cells were incubated 24 h in fresh medium (ctrl) or in medium containing 0.1 μM of 1 or 2. (A,B) The activity of caspase 9 and 3 was measured fluorimetrically, in duplicates. Data are means ± SD (n = 3). For both panels: ^∗p < 0.001 vs. A549 ctrl cells; °p < 0.001 for BEAS-2B cells vs. the corresponding condition in A549 cells. (C,D) Cell cycle distribution, measured in duplicates. Data are means ± SD (n = 3). For both panels: ^∗p < 0.001 vs. A549 ctrl cells: °p < 0.001 for BEAS-2B cells vs. the corresponding condition in A549 cells. (E) Bright field microscope analysis of cells. Magnification: 60 × objective (0.52 numerical aperture); 10 × ocular lens. Bar: 20 μM. The micrographs are representative of three experiments with similar results.

The test system of test [7] is BEAS-2B cells. The test can be described thus: Bright field morphological analysis. Conditions: 0.1 μM, 24 h.
Description: Human colon cancer HT29 cells, colon-derived normal fibroblast CCD-18Co cells, lung cancer A549 cells, normal human bronchial epithelial (immortalized with adenovirus 12-SV40 virus hybrid Ad12SV40) BEAS-2B cells, breast cancer MDA-MB-231 cells, normal breast epithelial MCF10A cells, human osteosarcoma U-2OS cells were purchased from ATCC (Manassas, VA, United States). Primary osteoblasts were generated as reported previously ([Buondonno et al., 2016]). HMM and HMC were primary cells stabilized in culture as described ([Aldieri et al., 2004]). The use of primary cells was approved by Ethical Committee of the San Luigi Gonzaga Hospital, Orbassano, (protocol #126/2016). All subjects gave written informed consent in accordance with the Declaration of Helsinki. Cells were maintained in medium supplemented with 10% v/v fetal bovine serum, 1% v/v penicillin-streptomycin, 1% v/v L-glutamine. Morphological analysis was performed with a bright field microscope (Leica Microsystems, Wetzlar, Germany). At least 5 fields/experimental condition were examined.
as §3

Test [8] concerns A549 cells. The test can be described thus: Extracellular LDH release. Particulars: 0.1, 1 or 10 μM, 24 h. As for the experimental part: (§4) The extracellular release of LDH, considered an index of cell damage and necrosis, was measured spectrophotometrically, as reported ([Riganti et al., 2013b]). The extracellular medium was centrifuged at 12,000 × g for 15 min to pellet cellular debris, the cells were washed with fresh medium, detached with 0.01% trypsin/EDTA, re-suspended in 0.2 ml of 82.3 mM triethanolamine phosphate-HCl (pH 7.6), and sonicated on ice with two 10-sec bursts. LDH activity was measured in the extracellular medium and in the cell lysate: 50 μl of extracellular medium or 5 μl of cell lysate were incubated at 37°C with 5 mM NADH. The reaction was started by adding 20 mM pyruvic acid and was monitored for 6 min, measuring absorbance at 340 nm using a Synergy HT Multi-Detection Microplate Reader (Bio-Tek Instruments, Winoosky, MT, United States). The reaction kinetics were linear throughout the time of measurement. Both intracellular and extracellular enzyme activities were expressed as μmol NADH oxidized/min/dish. The results were expressed as percentage of extracellular LDH versus total (intracellular plus extracellular) LDH. Cell viability was measured by the neutral red staining method, as previously reported ([Riganti et al., 2015b]). The absorbance of untreated cells was considered as 100% viability; the results were expressed as percentage of viable cells versus untreated cells. IC50 was calculated with the CompuSyn software^1.
(§5) Supplementary Figure 3. Cytotoxic effects of compound 15 and 16. A549 and BEAS-2B cells were grown in fresh medium (0) or incubated with 0.1, 1 or 10 µM of 15 and 16 for 24 h (panel A) or 72 h (panel B). A. The release of LDH was measured spectrophotometrically in duplicates. Data are means ± SD (n=3). B. Cell viability was measured spectrophotometrically in quadruplicates. Data are […]
as §1
(In general: LDH in the medium is a marker of cell lysis.)

For test [9], the system named is BEAS-2B cells. Put plainly: Extracellular LDH release. Conditions: 0.1, 1 or 10 μM, 24 h. As for the experimental part:
as §4, §5, §1

In the case of `CC(=O)Oc1ccc(C[P+](c2ccccc2)(c2ccccc2)c2ccccc2)cc1.[Br-]` [Compound 1], the entries for the “nuclear level of PGC-1α” value in test [1] and in test [2] were “reduced” and “unaffected”, respectively. Moreover, the “expression of mitofusin 1 (MFN1) and mitofusin 2 (MFN2)” value in test [3] is “no changes”. In test [4], the “amount of mitochondrial ATP” value is given as “significant decrease”. Further, the “mitochondrial ROS” value in test [5] is “acutely increased”. Also, in [6], the “activity of caspase 3” value is “strong activation”. Moreover, in test [7], the cell morphology entry is recorded as “decreased cell density without appreciable morphological signs of apoptosis”.

As to `O=C(Oc1ccc(C[P+](c2ccccc2)(c2ccccc2)c2ccccc2)cc1C(F)(F)F)c1ccccc1.[Br-]` [Compound 2], the results for the “nuclear level of PGC-1α” value in [1] and in test [2] were “reduced” and “unaffected”, respectively. The “expression of mitofusin 1 (MFN1) and mitofusin 2 (MFN2)” value in [3] was “no changes”. For the same compound, the “amount of mitochondrial ATP” value in [4] is on record as “significant decrease”. Besides, the “mitochondrial ROS” value in test [5] was “acutely increased”. Also, the “activity of caspase 3” value in test [6] is listed as “strong activation”. The cell morphology result in test [7] is on record as “decreased cell density without appreciable morphological signs of apoptosis”.

Turning to `Oc1ccc(C[P+](c2ccccc2)(c2ccccc2)c2ccccc2)cc1.[Br-]` [Compound 15], the “release of LDH” value in test [8] and in test [9] was “did not increase the release of LDH” throughout.

In the case of `Oc1ccc(C[P+](c2ccccc2)(c2ccccc2)c2ccccc2)cc1C(F)(F)F.[Br-]` [Compound 16], the “release of LDH” value in test [8] and in test [9] was “did not increase the release of LDH” in each case.

Values taken from publication PMC5994430, “Mitochondrial Delivery of Phenol Substructure Triggers Mitochondrial Depolarization and Apoptosis of Cancer Cells” (Frontiers in Pharmacology, 2018).
